Reference: PubChem BioAssay (NCI)
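48-hour exposure; five concentrations; linearly interpolated endpoints. GI50 is the concentration that inhibits growth by half. TGI marks complete inhibition of growth.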

Experiments:
Assay in all cases: NCI anticancer screen, dose series, 48 h; in the data active means GI50 below about 0.43 µM; inactive means the rest
786-0 renal = test system: 786-0 renal
A549 NSCLC = test system: A549 NSCLC
ACHN renal = test system: ACHN renal
BT-549 breast = test system: BT-549 breast
CAKI-1 renal = test system: CAKI-1 renal
CCRF-CEM leukemia = test system: CCRF-CEM leukemia
COLO 205 colon = test system: COLO 205 colon
DU-145 prostate = test system: DU-145 prostate
EKVX NSCLC = test system: EKVX NSCLC
HCT-116 colon = test system: HCT-116 colon
HCT-15 colon = test system: HCT-15 colon
HOP-62 NSCLC = test system: HOP-62 NSCLC
HOP-92 NSCLC = test system: HOP-92 NSCLC
HS 578T breast = test system: HS 578T breast
HT29 colon = test system: HT29 colon
IGROV1 ovarian = test system: IGROV1 ovarian
K-562 leukemia = test system: K-562 leukemia
KM12 colon = test system: KM12 colon
LOX IMVI melanoma = test system: LOX IMVI melanoma
M14 melanoma = test system: M14 melanoma
MALME-3M melanoma = test system: MALME-3M melanoma
MCF7 breast = test system: MCF7 breast
MDA-MB-231 breast = test system: MDA-MB-231 breast
MDA-MB-435 = test system: MDA-MB-435
MOLT-4 leukemia = test system: MOLT-4 leukemia
NCI-H226 lung = test system: NCI-H226 lung
NCI-H23 lung = test system: NCI-H23 lung
NCI-H460 lung = test system: NCI-H460 lung
NCI-H522 lung = test system: NCI-H522 lung
NCI/ADR-RES ovarian = test system: NCI/ADR-RES ovarian
OVCAR-3 ovarian = test system: OVCAR-3 ovarian
OVCAR-4 ovarian = test system: OVCAR-4 ovarian
OVCAR-5 ovarian = test system: OVCAR-5 ovarian
OVCAR-8 ovarian = test system: OVCAR-8 ovarian
PC-3 prostate = test system: PC-3 prostate
RPMI-8226 leukemia = test system: RPMI-8226 leukemia
RXF 393 renal = test system: RXF 393 renal
SF-268 CNS = test system: SF-268 CNS
SF-295 CNS = test system: SF-295 CNS
SF-539 CNS = test system: SF-539 CNS
SK-MEL-2 melanoma = test system: SK-MEL-2 melanoma
SK-MEL-28 melanoma = test system: SK-MEL-28 melanoma
SK-MEL-5 melanoma = test system: SK-MEL-5 melanoma
SK-OV-3 ovarian = test system: SK-OV-3 ovarian
SN12C renal = test system: SN12C renal
SNB-19 CNS = test system: SNB-19 CNS
SNB-75 CNS = test system: SNB-75 CNS
SR leukemia = test system: SR leukemia
SW-620 colon = test system: SW-620 colon
T-47D breast = test system: T-47D breast
TK-10 renal = test system: TK-10 renal
U251 CNS = test system: U251 CNS
UACC-257 melanoma = test system: UACC-257 melanoma
UACC-62 melanoma = test system: UACC-62 melanoma
UO-31 renal = test system: UO-31 renal
A498 renal = test system: A498 renal
HCC-2998 colon = test system: HCC-2998 colon
HL-60(TB) leukemia = test system: HL-60(TB) leukemia

C=C1C[C@H](O)[C@H]2C(C[Se]c3ccccc3)C(=O)O[C@@H]2[C@H]2[C@H](C)C(O)C[C@@H]12 (some centres undefined)
56.4 µM: TGI (HCT-116 colon)
50.2 µM: TGI (RXF 393 renal)
51.6 µM: TGI (NCI/ADR-RES ovarian)
65 µM: TGI (SN12C renal)
63.7 µM: TGI (UO-31 renal)
> 100 µM: TGI (A549 NSCLC) | TGI (CAKI-1 renal) | TGI (CCRF-CEM leukemia) | TGI (COLO 205 colon) | TGI (DU-145 prostate) | TGI (EKVX NSCLC) | TGI (HOP-62 NSCLC) | TGI (HOP-92 NSCLC) | TGI (HS 578T breast) | TGI (HT29 colon) | TGI (K-562 leukemia) | TGI (KM12 colon) | TGI (M14 melanoma) | TGI (MALME-3M melanoma) | TGI (MCF7 breast) | TGI (MDA-MB-435) | TGI (MOLT-4 leukemia) | TGI (NCI-H460 lung) | TGI (OVCAR-4 ovarian) | TGI (OVCAR-8 ovarian) | TGI (PC-3 prostate) | TGI (SF-268 CNS) | TGI (SF-295 CNS) | TGI (SF-539 CNS) | TGI (SK-MEL-2 melanoma) | TGI (SK-MEL-28 melanoma) | TGI (SK-MEL-5 melanoma) | TGI (SK-OV-3 ovarian) | TGI (SNB-19 CNS) | TGI (SNB-75 CNS) | TGI (SR leukemia) | TGI (T-47D breast) | TGI (TK-10 renal) | TGI (UACC-257 melanoma)
30.8 µM: TGI (U251 CNS)
83.9 µM: TGI (NCI-H226 lung)
94.8 µM: TGI (SW-620 colon)
55 µM: TGI (OVCAR-5 ovarian)
38.1 µM: TGI (MDA-MB-231 breast) | TGI (NCI-H522 lung)
98.4 µM: TGI (BT-549 breast)
51.4 µM: TGI (LOX IMVI melanoma)
98 µM: TGI (RPMI-8226 leukemia)
76.3 µM: TGI (ACHN renal)
33.9 µM: TGI (HCT-15 colon)
64.1 µM: TGI (UACC-62 melanoma)
93.1 µM: TGI (IGROV1 ovarian)
98.6 µM: TGI (OVCAR-3 ovarian)
40.7 µM: TGI (NCI-H23 lung)
99.3 µM: TGI (786-0 renal)

CO/N=C(\COc1ccc2c(=O)cc(-c3ccccc3)oc2c1)c1ccc(F)cc1
66.6 µM: TGI (IGROV1 ovarian)
45.9 µM: TGI (MALME-3M melanoma)
55 µM: TGI (SNB-75 CNS)
47.2 µM: TGI (SR leukemia)
47.7 µM: TGI (OVCAR-3 ovarian)
56.9 µM: TGI (SF-295 CNS)
inactive: GI50 (786-0 renal) 20.7 µM | GI50 (A498 renal) > 100 µM | GI50 (A549 NSCLC) 30.6 µM | GI50 (ACHN renal) 34 µM | GI50 (BT-549 breast) > 100 µM | GI50 (CAKI-1 renal) 22.7 µM | GI50 (CCRF-CEM leukemia) > 100 µM | GI50 (COLO 205 colon) > 100 µM | GI50 (DU-145 prostate) 76.1 µM | GI50 (EKVX NSCLC) 74.4 µM | GI50 (HCC-2998 colon) 32.3 µM | GI50 (HCT-116 colon) 28.4 µM | GI50 (HCT-15 colon) 63.9 µM | GI50 (HL-60(TB) leukemia) 21 µM | GI50 (HOP-62 NSCLC) 21 µM | GI50 (HS 578T breast) 51.5 µM | GI50 (HT29 colon) 33.6 µM | GI50 (IGROV1 ovarian) 21.9 µM | GI50 (K-562 leukemia) 36.5 µM | GI50 (KM12 colon) 53.8 µM | GI50 (LOX IMVI melanoma) 67.5 µM | GI50 (M14 melanoma) 36.1 µM | GI50 (MALME-3M melanoma) 19.3 µM | GI50 (MDA-MB-231 breast) 27.7 µM | GI50 (MDA-MB-435) 10.3 µM | GI50 (NCI-H226 lung) > 100 µM | GI50 (NCI-H23 lung) 92.7 µM | GI50 (NCI-H522 lung) 23.1 µM | GI50 (NCI/ADR-RES ovarian) 34.4 µM | GI50 (OVCAR-3 ovarian) 14 µM | GI50 (OVCAR-4 ovarian) 58.2 µM | GI50 (OVCAR-5 ovarian) 42.1 µM | GI50 (OVCAR-8 ovarian) 40.7 µM | GI50 (PC-3 prostate) 37.9 µM | GI50 (RPMI-8226 leukemia) > 100 µM | GI50 (RXF 393 renal) 27.7 µM | GI50 (SF-295 CNS) 25.8 µM | GI50 (SF-539 CNS) 94.8 µM | GI50 (SK-MEL-2 melanoma) 24 µM | GI50 (SK-MEL-28 melanoma) 89.4 µM | GI50 (SK-MEL-5 melanoma) 35.1 µM | GI50 (SK-OV-3 ovarian) 41.4 µM | GI50 (SN12C renal) 36.2 µM | GI50 (SNB-75 CNS) 24.1 µM | GI50 (SR leukemia) 14.5 µM | GI50 (SW-620 colon) 42.6 µM | GI50 (T-47D breast) 68.4 µM | GI50 (TK-10 renal) 41.7 µM | GI50 (U251 CNS) 29.2 µM | GI50 (UACC-257 melanoma) 32.1 µM | GI50 (UACC-62 melanoma) 29.8 µM | GI50 (UO-31 renal) > 100 µM
50.5 µM: TGI (HOP-62 NSCLC)
88.5 µM: TGI (U251 CNS)
49.8 µM: TGI (786-0 renal)
65.6 µM: TGI (CAKI-1 renal)
96 µM: TGI (HCC-2998 colon)
60.4 µM: TGI (SK-MEL-2 melanoma)
87.5 µM: TGI (RXF 393 renal)
37.1 µM: TGI (MDA-MB-435)
> 100 µM: TGI (A498 renal) | TGI (A549 NSCLC) | TGI (ACHN renal) | TGI (BT-549 breast) | TGI (CCRF-CEM leukemia) | TGI (COLO 205 colon) | TGI (DU-145 prostate) | TGI (EKVX NSCLC) | TGI (HCT-116 colon) | TGI (HCT-15 colon) | TGI (HL-60(TB) leukemia) | TGI (HS 578T breast) | TGI (HT29 colon) | TGI (K-562 leukemia) | TGI (KM12 colon) | TGI (LOX IMVI melanoma) | TGI (M14 melanoma) | TGI (NCI-H226 lung) | TGI (NCI-H23 lung) | TGI (NCI/ADR-RES ovarian) | TGI (OVCAR-4 ovarian) | TGI (OVCAR-5 ovarian) | TGI (OVCAR-8 ovarian) | TGI (PC-3 prostate) | TGI (RPMI-8226 leukemia) | TGI (SF-539 CNS) | TGI (SK-MEL-28 melanoma) | TGI (SK-MEL-5 melanoma) | TGI (SK-OV-3 ovarian) | TGI (SN12C renal) | TGI (SW-620 colon) | TGI (T-47D breast) | TGI (TK-10 renal) | TGI (UACC-257 melanoma) | TGI (UACC-62 melanoma) | TGI (UO-31 renal)
64 µM: TGI (MDA-MB-231 breast)
62.3 µM: TGI (NCI-H522 lung)
